Measurements: ChEMBL document CHEMBL3393043, “Computer-aided identification of novel anticancer compounds with a possible dual HER1/HER2 inhibition mechanism” (Bioorg Med Chem Lett, 2015)
pIC50: −log10 of the molar value.

Legend:
[1] = Antiproliferative activity against human BT474 cells overexpressing HER2 at 10 uM by MTT assay; type: functional; settings: BT-474
[2] = Antiproliferative activity against human SKBR3 cells overexpressing HER2 by MTT assay; type: functional, cell-based; settings: SK-BR-3
[3] = molecular target: T1, Epidermal growth factor receptor (Homo sapiens, UniProt P00533); assay: Inhibition of human full length HER1 assessed as phosphorylation state at 10 uM by ELISA assay
[4] = molecular target: T2, Receptor tyrosine-protein kinase erbB-2 (Homo sapiens, UniProt P04626); assay: Inhibition of human full length HER2 assessed as phosphorylation state at 10 uM by ELISA assay
[5] = Antiproliferative activity against human BT474 cells overexpressing HER2 by MTT assay; type: functional, cell-based; settings: BT-474
[6] = Antiproliferative activity against human SKBR3 cells overexpressing HER2 at 10 uM by MTT assay; type: functional; settings: SK-BR-3
[7] = molecular target: T1, Epidermal growth factor receptor; assay: Inhibition of human full length HER1 assessed as phosphorylation state by ELISA assay
[8] = molecular target: T2, Receptor tyrosine-protein kinase erbB-2; assay: Inhibition of human full length HER2 assessed as phosphorylation state by ELISA assay

T2 sequence (P04626 whole entry): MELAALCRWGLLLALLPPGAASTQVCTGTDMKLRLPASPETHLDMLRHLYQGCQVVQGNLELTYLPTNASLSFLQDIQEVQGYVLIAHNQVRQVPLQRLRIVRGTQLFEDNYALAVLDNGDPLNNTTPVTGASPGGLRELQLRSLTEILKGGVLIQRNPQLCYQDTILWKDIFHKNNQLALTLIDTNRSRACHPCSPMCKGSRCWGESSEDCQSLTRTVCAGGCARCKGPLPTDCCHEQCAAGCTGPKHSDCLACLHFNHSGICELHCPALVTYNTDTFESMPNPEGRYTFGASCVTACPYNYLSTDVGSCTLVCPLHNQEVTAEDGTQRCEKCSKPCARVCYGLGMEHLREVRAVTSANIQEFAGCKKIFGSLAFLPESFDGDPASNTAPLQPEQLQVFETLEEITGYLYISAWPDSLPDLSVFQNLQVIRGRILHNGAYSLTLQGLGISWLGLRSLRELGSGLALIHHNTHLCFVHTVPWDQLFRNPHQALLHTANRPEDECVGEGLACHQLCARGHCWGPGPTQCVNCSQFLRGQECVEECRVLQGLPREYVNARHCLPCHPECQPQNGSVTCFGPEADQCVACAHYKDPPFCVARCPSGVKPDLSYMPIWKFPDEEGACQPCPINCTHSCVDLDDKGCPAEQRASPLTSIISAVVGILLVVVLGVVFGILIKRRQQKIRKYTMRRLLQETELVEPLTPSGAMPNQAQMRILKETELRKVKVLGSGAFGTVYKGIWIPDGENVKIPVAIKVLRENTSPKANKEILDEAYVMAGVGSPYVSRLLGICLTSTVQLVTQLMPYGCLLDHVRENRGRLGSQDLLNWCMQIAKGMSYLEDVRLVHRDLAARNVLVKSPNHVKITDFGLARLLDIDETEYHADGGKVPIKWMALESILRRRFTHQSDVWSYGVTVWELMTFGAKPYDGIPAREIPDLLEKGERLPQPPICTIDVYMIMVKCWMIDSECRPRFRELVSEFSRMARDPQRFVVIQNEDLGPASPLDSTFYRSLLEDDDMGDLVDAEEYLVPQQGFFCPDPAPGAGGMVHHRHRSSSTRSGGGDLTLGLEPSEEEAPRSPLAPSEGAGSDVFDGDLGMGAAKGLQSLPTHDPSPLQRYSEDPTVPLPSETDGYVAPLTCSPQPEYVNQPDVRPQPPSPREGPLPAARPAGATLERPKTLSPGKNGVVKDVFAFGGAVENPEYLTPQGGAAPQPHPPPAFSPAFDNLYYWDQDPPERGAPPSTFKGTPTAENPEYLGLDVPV
T1 sequence (P00533 whole entry): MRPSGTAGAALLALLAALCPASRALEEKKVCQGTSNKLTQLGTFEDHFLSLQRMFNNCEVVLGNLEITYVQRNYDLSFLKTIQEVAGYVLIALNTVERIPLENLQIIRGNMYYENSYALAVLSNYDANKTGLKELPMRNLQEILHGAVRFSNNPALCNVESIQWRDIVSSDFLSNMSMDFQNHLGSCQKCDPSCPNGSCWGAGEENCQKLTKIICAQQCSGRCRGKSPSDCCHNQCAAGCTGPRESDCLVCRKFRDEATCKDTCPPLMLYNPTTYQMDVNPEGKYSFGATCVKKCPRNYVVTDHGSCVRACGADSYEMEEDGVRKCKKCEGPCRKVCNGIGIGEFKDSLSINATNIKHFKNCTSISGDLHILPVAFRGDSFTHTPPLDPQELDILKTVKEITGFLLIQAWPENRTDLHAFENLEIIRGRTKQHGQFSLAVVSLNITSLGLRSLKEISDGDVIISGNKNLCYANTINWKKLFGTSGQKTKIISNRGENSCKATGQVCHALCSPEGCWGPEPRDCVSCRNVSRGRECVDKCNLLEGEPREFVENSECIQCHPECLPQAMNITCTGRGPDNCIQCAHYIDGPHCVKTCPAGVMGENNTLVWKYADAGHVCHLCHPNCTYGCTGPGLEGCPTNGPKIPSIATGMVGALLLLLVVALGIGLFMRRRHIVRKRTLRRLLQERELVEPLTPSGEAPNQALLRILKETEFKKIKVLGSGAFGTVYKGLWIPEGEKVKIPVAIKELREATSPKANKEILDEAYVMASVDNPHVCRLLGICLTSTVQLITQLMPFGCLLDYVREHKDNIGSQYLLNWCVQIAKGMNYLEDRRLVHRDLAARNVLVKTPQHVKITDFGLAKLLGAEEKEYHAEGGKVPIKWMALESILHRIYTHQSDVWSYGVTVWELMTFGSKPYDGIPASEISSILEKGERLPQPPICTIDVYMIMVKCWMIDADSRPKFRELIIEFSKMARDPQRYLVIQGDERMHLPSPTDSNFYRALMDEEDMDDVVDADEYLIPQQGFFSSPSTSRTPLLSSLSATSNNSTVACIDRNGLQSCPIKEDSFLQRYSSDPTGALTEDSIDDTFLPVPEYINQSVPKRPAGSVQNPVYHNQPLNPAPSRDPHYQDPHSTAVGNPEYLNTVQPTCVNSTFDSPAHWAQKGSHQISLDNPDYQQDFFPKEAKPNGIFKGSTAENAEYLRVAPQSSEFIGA

inhibition [3]	inhibition [4]	SMILES	inhibition at 10 µM [1]	pIC50 [2]	pIC50 [5]	also measured
–	–	O=C(CSc1nc(-c2cccs2)cc(C(F)(F)F)n1)Nc1ccc2c(c1)OCO2	47.9%	–	–	–
–	–	COc1ccccc1OCC(=O)Nc1cccc(-c2nc3ccccc3c(=O)o2)c1	35%	–	–	–
–	–	Cc1ccn2c(C(=O)N/N=C/c3cn(-c4ccccc4)nc3-c3cccs3)c(C)nc2c1	48.2%	–	–	–
–	–	N#Cc1cnn(-c2ccccc2)c1NC(=O)CSc1nnc(-c2ccco2)n1-c1ccc(F)cc1	9.56%	–	–	–
–	–	Cc1nnc2sc(-c3ccc(NCc4ccc(F)cc4)cc3)nn12	51%	–	–	–
83.9%	67%	Cc1ccc(C(=O)COc2cccc(-c3cnc4ccccc4n3)c2)cc1	56.2%	5.51	6.50	–
–	–	c1cncc(Nc2nnc(Cc3c[nH]c4ccccc34)o2)c1	–	–	–	inhibition at 10 µM [6]: 33.4%
–	–	COc1nc(N/N=C/c2ccc(-c3ccc(Cl)c([N+](=O)[O-])c3)o2)nc(N2CCOCC2)n1	39.8%	–	–	–
–	–	c1ccc(-n2nnnc2Oc2cccc(CNCc3ccc4c(c3)OCO4)c2)cc1	27.2%	–	–	–
–	–	Brc1cccnc1Nc1nnc(Cc2c[nH]c3ccccc23)o1	–	–	–	inhibition at 10 µM [6]: 37.2%
83%	85.8%	Cc1ccc2c(C)nc(Nc3nc(O)cc(CSc4nnnn4-c4ccccc4)n3)nc2c1	72.7%	5.99	6.12	pIC50 [7]: 5.41; pIC50 [8]: 5.22
–	–	O=C(Cc1c[nH]c2ccccc12)NNC(=S)Nc1ncccc1Br	–	–	–	inhibition at 10 µM [6]: 71.5%; pIC50 [7]: 5.07; pIC50 [8]: 4.91
–	–	O=C(Cc1c[nH]c2ccccc12)NNC(=S)Nc1cccnc1	–	–	–	inhibition at 10 µM [6]: 21.2%
79.9%	73.1%	Brc1cccc(CNc2ccc(-c3nc4ccccc4o3)cc2)c1	51.8%	5.91	6.46	–
–	–	CN1C(=O)C(O)(CC(=O)c2cccc(-n3cccc3)c2)c2ccccc21 (configuration not stated)	7.25%	–	–	–
76.1%	75.1%	O=C(CSc1nnc2ccc(-c3ccccc3)nn12)NC(=O)Nc1ccccc1	52.7%	5.79	6.10	–
80.5%	67.1%	O=[N+]([O-])c1cc(-c2ccc(/C=N/c3nc4ccccn4c3-c3ccco3)o2)ccc1Cl	77%	5.50	5.96	–
81.8%	72.1%	Nc1ncn(Cc2ccccc2)c2nc(SCCOc3ccccc3F)nc1-2	61.4%	5.65	6.37	–
–	–	O=C(COC(=O)c1cc(O)nc2ccccc12)c1ccc2ccccc2c1	17%	–	–	–
